US20030044413A1, “Methods of limiting apoptosis of cells” (Regents of the University of Minnesota, priority 1998, published 2003)
Like-named read-outs stand apart in the source and are kept apart here.

How the values were obtained:
Assay type in all cases: cell-based
Bax = Bax translocation from cytosol to mitochondria in rat hepatocytes; conditions: preincubation with UDCA
Procedure: (§1) Isolation of cytosol and mitochondrial fractions and determination of cytochrome c and Bax content. Freshly isolated rat hepatocytes were cultured for 3 hours as described above and then incubated with William's medium supplemented with either 50 μM of DCA for 4 h, 1 nM TGF-β1 for 24 h and […] okadaic acid for 16 h, in the presence or absence of 100 μM UDCA, or no addition (control). Time-course experiments were also performed. Cells (1.0×10^7/ml) were harvested by centrifugation at 600×g for 5 min at 4° C. The cell pellets were washed once in ice-cold PBS and resuspended with 3 volumes of isolation buffer containing 20 mM Hepes-KOH, pH 7.5, 10 mM KCl, 1.5 mM MgCl2, 1 mM sodium EDTA, 1 mM sodium EGTA, 1 mM dithiothreitol (DTT), suplemmented with the COMPLETE protease inhibitor cocktail (Boehringer Mannheim Biochemicals, Inc., Indianapolis, Ind.) in 250 mM sucrose. After chiling on ice for 15 min, the cells were disrupted by 40 stokes of a glass homogeneizer and the homogenates were centrifuged twice at 2,500×g for 10 min at 4° C. to remove unbroken cells and nuclei. The mitochondria were pelleted by centrifugation at 12,000×g for 30 min at 4° C., resuspended in isolation buffer containing 250 mM sucrose and frozen at −80° C. […]

Hep G2 cells = test: Anti-Fas antibody-induced apoptosis, Hep G2 cells
Procedure: Incubation of cells with ethanol, TGF-β1, anti-Fas antibody or okadaic acid. Freshly isolated rat hepatocytes were cultured for 3 h as described above and then incubated with William's E medium supplemented with either 0.5% ethanol, 50 μM UDCA, ethanol plus UDCA, or no addition (control) for 2 h and 4 h. HuH-7 cells were incubated with Dulbecco's medium supplemented with either 1 nM TGF-β1 (R & D Systems, Minneapolis, Minn.), 100 μM UDCA, TGF-β1+UDCA, or no addition (control) for 24 h, 48 h, and 72 h. Hep G2 cells were incubated with Dulbecco's medium supplemented with either 0.5 μg/ml of anti-Fas antibody CH-11 (Upstate Biotechnology, Inc., Lake Placid, N.Y.), 100 μM UDCA, CH-11+UDCA, or no addition for 48 h. Both HuH-7 cells and human osteogenic sarcoma Saos-2 cells were cultured in Dulbecco's medium supplemented with either 50 nM okadaic acid (Boehringer Mannheim Biochemicals, Inc, Indianapolis, Ind.), 100 μM UDCA, okadaic acid+UDCA, or no addition for 48 h. […]
Morphological evaluation of apoptosis. […] Fluorescence was visualized with a Zeiss standard fluorescence microscope (Carl Zeiss, Inc., Thornwood, N.Y.). […] Stained nuclei were scored by blind analysis and categorized according to the condensation and staining characteristics of chromatin. […] Three fields per dish of approximately 500 nuclei were counted; mean values are expressed as the percent of apoptotic nuclei.

[1] = tested on: hepatocytes, HuH-7, Hep G2 and Saos-2 cells; test: Coadministration of UDCA with each apoptosis-inducing agent, all cell types
Procedure: Incubation of cells with bile acids. […] The medium was gently removed at the indicated time points and scored for nonviable cells by trypan blue dye exclusion. The attached cells were fixed for morphologic assessment of apoptotic changes. […] HuH-7 cells were incubated with Dulbecco's medium supplemented with either 1 nM TGF-β1 (R & D Systems, Minneapolis, Minn.), 100 μM UDCA, TGF-β1+UDCA, or no addition (control) for 24 h, 48 h, and 72 h. Hep G2 cells were incubated with Dulbecco's medium supplemented with either 0.5 μg/ml of anti-Fas antibody CH-11 (Upstate Biotechnology, Inc., Lake Placid, N.Y.), 100 μM UDCA, CH-11+UDCA, or no addition for 48 h. […] Morphological evaluation of apoptosis. Morphology was performed as described previously (Oberhammer et al., Proc. Natl. Acad. Sci. USA 89, 5408-5412 (1992)). […] Fluorescence was visualized with a Zeiss standard fluorescence microscope (Carl Zeiss, Inc., Thornwood, N.Y.). Photographs were taken with Kodak Ektar-1000 film (Eastman Kodak Co.). Stained nuclei were scored by blind analysis and categorized according to the condensation and staining characteristics of chromatin. Normal nuclei were identified as noncondensed chromatin dispersed over the entire nucleus. Apoptotic nuclei were identified by condensed chromatin, contiguous to the nuclear membrane, as well as nuclear fragmentation of condensed chromatin.

cytochrome c = test: Cytochrome c content of cytosol and mitochondria of rat hepatocytes; conditions: Hepatocyte, hepatocytes with DCA, TGF-β1 or okadaic acid, 100 μM UDCA
Procedure: as §1

C[C@H](CCC(=O)O)[C@H]1CC[C@H]2[C@@H]3[C@@H](O)C[C@@H]4C[C@H](O)CC[C@]4(C)[C@H]3CC[C@]12C [UDCA, ursodeoxycholic acid]
prevention of Bax translocation (Bax): 45%
cells exhibiting apoptotic changes (Hep G2 cells; 0.5 μg/ml CH-11 or 100 μM UDCA alone, 48 h): 0.7%
Inhibition % Apoptosis (Hep G2 cells; inducer CH-11, Hep G2, inhibition by UDCA): 83.2 ± 7.0%
inhibition of apoptotic changes [1]: 50-100%
inhibition at 100 µM (cytochrome c; read-out: inhibition of cytochrome c depletion from the mitochondria): 70%
inhibition at 100 µM (cytochrome c; read-out: inhibition of cytochrome c release to the cytosol): 60%
